Measurements: patent publication US20230330188A1, “PHARMACEUTICAL COMBINATION FOR USE IN THE TREATMENT AND/OR PREVENTION OF DIABETES” (INSPHERO AG, priority 2020, published 2023)

Test system: 3D InSight™ Human Islet Microtissues
Test: Glucose-stimulated insulin secretion (GSIS) after 13 days of glucolipotoxicity (GLTX) induced islet injury
Assay type: cell-based
Settings: GSIS at 16.7 mM glucose, vs GLTX group

semaglutide
glucose-stimulated insulin secretion (GSIS) (FIG. 2, long-term (13 days) treatment with 1 μM semaglutide alone in glucolipotox medium): does not improve the GSIS

COc1ccc(CCN(C)CCCC(C#N)(c2ccc(OC)c(OC)c2)C(C)C)cc1OC (centres unmarked) [verapamil]
glucose-stimulated insulin secretion (GSIS) (FIG. 3, long-term (13 days) treatment with 10 μM verapamil alone in glucolipotox medium): has a positive influence on GSIS
